Measurements published in patent publication US6559115B1, “Detergent tablet with high mechanical and dissolution characteristics” (The Procter & Gamble Company, priority 1998, dated 2003).

Assays:
[1] = Conductivity test defining a highly soluble compound; assay type: physicochemical; conditions: conductivity reaches 80% of maximum in less than 10 seconds
Procedure: A solution is prepared as follows comprising de-ionised water as well as 20 grams per liter of a specific compound:
1—20 g of the specific compound is placed in a Sotax Beaker. This beaker is placed in a constant temperature bath set at 10° C. A stirrer with a marine propeller is placed in the beaker so that the bottom of the stirrer is at 5 mm above the bottom of the Sotax beaker. The mixer is set at a rotation speed of 200 turns per minute.
2—980 g of the de-ionised water is introduced into the Sotax beaker.
3—10 s after the water introduction, the conductivity of the solution is measured, using a conductivity meter.
4—Step 3 is repeated after 20, 30, 40, 50, 1 min, 2 min, 5 min and 10 min after step 2.
5—The measurement taken at 10 min is used as the plateau value or maximum value.

[2] = Tablet compression and tensile strength (diametrical fracture stress); assay type: physicochemical; conditions: tensile strength increased by over 30% by 3% compound at compacting force 3000N
From the text: For the purpose of this invention, the Cohesive Effect on the particulate material of a detergent matrix is characterised by the force required to break a tablet based on the examined detergent matrix pressed under controlled compression conditions. […] Means to assess tablet strength (also refer to diametrical fracture stress) are given in Pharmaceutical dosage forms: tablets volume 1 Ed. H. A. Lieberman et al, published in 1989.
The temperature of the addition is between 10 and 80 C., more pref. between 10 and 40 C.
For a cylindrical tablet, the tensile strength corresponds to the diametrical fracture stress (DFS) which is a way to express the strength of a tablet, and is determined by the following equation: [formula]
Where F is the maximum force (Newton) to cause tensile failure (fracture) measured by a VK 200 tablet hardness tester supplied by Van Kell industries, Inc. D is the diameter of the tablet, and t the thickness of the tablet.
iii) Tablets were then made the following way: 50 g of the mixture was introduced into a mould of circular shape with a diameter of 5.5 cm and compressed to give a tablet tensile strength (or diametrical fracture stress) of 15 kPa. The force required to obtain a tablet tensile strength of 15 kPa was 2400 N. The tablet height was 1.94 cm.

Highly soluble compound according to the invention [1]: highly soluble
Cohesive effect on the particulate material [2]: having a cohesive effect
Substance: sodium di isoalkylbenzene sulphonate [Compounds of Example 1]
